*: point of attachment. ACC = NC(=O)Cc1cc(=O)oc2cc(N*)ccc12
Columns and labels:
human DUB UCH-L3 [1] = biological target: T1, human DUB UCH-L3 (Homo sapiens, UniProt P15374); assay type: biochemical
[2] = system: human DUBs in HeLa lysates; assay type: biochemical
SARS-CoV-2 PLpro [3] = biological target: T2, SARS-CoV-2 PLpro (Severe acute respiratory syndrome coronavirus 2, UniProt P0DTD1)
human DUB UCH-L3 [4] = biological target: T1, human DUB UCH-L3; assay type: biochemical; remark: listed apart in the source
SARS-CoV-2 PLpro [5] = biological target: T2, SARS-CoV-2 PLpro; remark: listed apart in the source

T1 sequence (P15374 whole entry, looked up): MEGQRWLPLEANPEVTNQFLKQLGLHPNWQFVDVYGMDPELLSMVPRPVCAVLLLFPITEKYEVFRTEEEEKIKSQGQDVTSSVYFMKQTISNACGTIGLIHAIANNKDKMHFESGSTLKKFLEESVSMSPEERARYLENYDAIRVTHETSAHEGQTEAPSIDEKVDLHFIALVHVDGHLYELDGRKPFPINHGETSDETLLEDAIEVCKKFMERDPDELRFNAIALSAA

Row | Substance | inhibition of DUB activity (residual activity) (human DUB UCH-L3 [1]) | Ub-VME cross-linking profile of HeLa lysates on titration of inhibitor [2] | inhibition of DUB activity (residual activity) (SARS-CoV-2 PLpro [3]) | substrate recognition (hydrolysis rate, RFU/s) (human DUB UCH-L3 [4]) | substrate recognition (hydrolysis rate, RFU/s) (SARS-CoV-2 PLpro [5])
1 | Ac-Abu(Bth)-Dap-Gly-Gly-VME [VIR250] | practically no inhibition | unaltered | robustly inhibit |  | 
2 | Ac-LRGG-{ACC} [Ac-LRGG-ACC] |  |  |  | recognized | recognized
